Earlier results as cited in paper PMC6669827 (Toxins, 2019).

Test system: rat α9α10 nAChR
Settings: cited from earlier work

## Vc1.1
  affinity for rat versus human α9/α10 (in words): the affinity is higher for the rat subtypes
